According to US20230285570A1, “THERAPEUTICALLY USEFUL CURE-PRO MOLECULES FOR E3 LIGASE MEDIATED DEGRADATION OF PROTEINS, AND METHODS OF MAKING AND USING THEM” (CORNELL UNIVERSITY, priority 2020, published 2023):
Entries after “also recorded” stand apart in the source; their conditions may differ.

Legend:
[1] = target: T1, BRD4 (Homo sapiens, UniProt O60885); assay: CURE-PRO-mediated BRD4 degradation in HeLa cells, Western blot; format: cell-based; design: endogenous in cells; host or cells: HeLa; details: 24 h
Protocol: All cell lines were purchased from ATCC or DSMZ and grown at 37° C. with 5% CO2. Human HeLa cells were cultured in complete growth medium (Dulbecco's modified Eagle's medium (DMEM) supplemented with 10% FBS); MCF7 cells were cultured in complete growth medium (Dulbecco's modified Eagle's medium (DMEM) supplemented with 10% FBS and 0.01 mg/ml human recombinant insulin (Sigma Aldrich); Namalwa and Ramos cells were cultured in complete growth medium (RPMI 1640 medium supplemented with 10% FBS); HCT116 and HT29 cells were cultured in complete growth medium (McCoy's 5a Medium supplemented with 10% FBS). For cellular degradation of BRD4 studies cells were seeded in a 12-well plate at 70-80% confluency, allowed to attach overnight, and incubated with the indicated compounds for the indicated time. When indicated, a 15-minute pretreatment with 10 μM pomalidomide, 10 μM VHL298, 10 μM Nutlin3a, 1 μM MG-132 or 1 μM Carfilzomib was performed before the addition of CURE-PROs. For washout studies, after CURE-PRO treatment, media was aspirated and incubated with complete medium for the indicated time before lysis.
(§1) Namalwa, Ramosm HeLa, MCF7, or HT29 HCT116 cells (2.5-3×10^6) were treated for 24 hours with the indicated compounds solubilized in DMSO. The cells were washed in ice-cold PBS and were then lysed in RIPA lysis buffer (150 mM NaCl, 5 mM EDTA, 1% NP-40, 0.5% sodium deoxycholate, 0.1% SDS, 50 mM Tris, pH 8.0.) with Roche protease inhibitor complete cocktail and phosphatase inhibitors (10 mM sodium fluoride, 10 mM sodium pyrophosphate, 1 mM sodium orthovanadate and 20 mM β-glycerophosphate). The total protein concentrations were determined by Bradford Protein Assay (Pierce) and 10-20 μg of protein was loaded onto 4-15% Tris-Glycine gradient gels (Biorad). After standard gel electrophoresis, the separated proteins were transferred to PVDF membrane by wet transfer. The immunoblots were then blocked for 1 hour in 5% skim milk in TBST or 5% BSA in TBST, according to manufacturer's instructions, before an overnight incubation at 4° C. with indicated antibodies and membranes. Membranes were then incubated with the appropriate horseradish peroxidase-conjugated secondary antibodies (1:5,000 dilution) for 1 h at room temperature and the bands were visualized using the Clarity Max Western ECL Substrate (Biorad) and the ChemiDoc Imaging System (Biorad). Signal was detected with ECL Western Blotting Substrate (Pierce) and X-ray film processed with a Konica SRX-101 X-ray film processor or captured by Bio-Rad's Chemidoc Imaging system.
HeLa cells (2.5×10^6) were treated for 24 hours with the sample compounds solubilized in DMSO. Compounds were added at 1-10 μM each. Standardized protein samples were electrophoresed and imaged as described in the immunoblotting description above. FIGS. 6-18 depicts the CURE-PRO-mediated BRD4 degradation for BRD monomers (JQ1 derivatives comprising of catechol linkers), and CRBN ligands, 8048 and 8049 (pomalidomide derivatives comprising boronic acid linkers) combined in a 1:1 ratio.
HeLa cells (2.5×10^6) were treated for 24 hours with the compounds solubilized in DMSO. The compounds were added at 10 μM each. Standardized protein samples were electrophoresed and imaged as described in the immunoblotting section above. FIGS. 23-27 depicts the CURE-PRO-mediated BRD4 degradation for BRD monomers (JQ1 derivatives comprising of boronic acid linkers), and CRBN ligands, 8046, 8047 and 8066 (pomalidomide derivatives comprising diol linkers) combined in a 1:1 ratio.
HeLa cells (2.5×10^6) were treated for 24 hours with the compounds solubilized in DMSO. Compounds were added at 10 μM and 100 μM each. Standardized protein samples were electrophoresed and imaged as described in the immunoblotting section above.
HeLa cells (2.5×10^6) were treated for 24 hours with the compounds solubilized in DMSO. Compounds were added at 1 nM-1 μM each. […]

[2] = target: T1, BRD4; assay: Summary of BRD4 degradation by CURE-PRO pairs, estimated from Western Blot or WES; format: cell-based; design: endogenous in cells; details: for Degradation of BRD4, combination with CRBN ligand 8046: Table 1, aryl-boronic acid BRD4 ligand + 8046; for Degradation of BRD4, combination with CRBN ligand 8047: Table 1, aryl-boronic acid BRD4 ligand + 8047; for Degradation of BRD4, combination with CRBN ligand 8066: Table 1, aryl-boronic acid BRD4 ligand + 8066; for Degradation of BRD4, combination with CRBN ligand 8048: Table 4, aromatic 1,2-diol BRD4 ligand + 8048
Protocol: as §1
WES Simple analysis was performed on WES system (ProteinSimple-Biotechne) according to the manufacturer's instructions. Total protein concentrations of cell lysates were determined by the Pierce BCA kit (Thermo Fisher). 3 μL of 0.3 μg/μL of the protein lysate was loaded onto a 12- to 230-kDa WES assay plate (ProteinSimple) where 300 nL sample was withdrawn through a capillary, subjected to electrophoretic separation of proteins by size, and followed by the simultaneous, HRP-based detection of proteins using the Anti-Rabbit Detection Module (Proteinsimple: #DM-001). The electropherograms were checked then the automatic peak detection was manually corrected if it was required.
A black check mark indicates efficacy of 30% to 70% or higher protein degradation.

[3] = co-treated 1:1 with CRBN ligand 8066, HeLa, 10 μM each
[4] = BRD4 monomer alone, HeLa, 1-10 μM
[5] = co-treated 1:1 with CRBN ligand 8048, HeLa, 1-10 μM each
[6] = co-treated 1:1 with CRBN ligand 8049, HeLa, 1-10 μM each
[7] = co-treated 1:1 with CRBN ligand 8047, HeLa, 10 μM each

SMILES	BRD4 degradation [1, 4]	BRD4 degradation [1, 5]	BRD4 degradation [1, 6]	Degradation of BRD4, combination with CRBN ligand 8048 [2]	further results
COc1ccc2c(c1)C(c1ccc(Cl)cc1)=N[C@@H](CC(=O)NCc1cccc(B(O)O)c1)c1nnc(C)n1-2 [BRD-E10]	–	–	–	–	BRD4 degradation ([1]; 1:1 with CRBN ligand 8046, HeLa, 10 μM and 100 μM each): only demonstrated BRD4 degradation at 100 μM; BRD4 degradation ([1]; 1:1 with CRBN ligand 8047, HeLa, 10 μM and 100 μM each): complete degradation at 10 μM; Degradation of BRD4, combination with CRBN ligand 8046 [2]: √ (A black check mark indicates efficacy of 30% to 70% or higher protein degradation); Degradation of BRD4, combination with CRBN ligand 8047 [2]: √ (A black check mark indicates efficacy of 30% to 70% or higher protein degradation); Degradation of BRD4, combination with VHL ligand 8304 ([2]; Table 3, aryl-boronic acid BRD4 ligand + 8304): √ (A black check mark indicates efficacy of 30% to 70% or higher protein degradation)
COc1ccc2c(c1)C(c1ccc(Cl)cc1)=N[C@@H](CC(=O)NCCOCCOCCNC(=O)c1ccc(B(O)O)cc1)c1nnc(C)n1-2 [BRD-E45]	–	–	–	–	BRD4 degradation [1, 3]: causes degradation of BRD4; Degradation of BRD4, combination with CRBN ligand 8066 [2]: √ (A black check mark indicates efficacy of 30% to 70% or higher protein degradation); Degradation of BRD4, combination with VHL ligand 8305 ([2]; Table 3, aryl-boronic acid BRD4 ligand + 8305): √ (A black check mark indicates efficacy of 30% to 70% or higher protein degradation)
CCNC(=O)C[C@@H]1N=C(c2ccc(Cl)cc2)c2cc(OCCOCCOCCOCCOCCOCCNC(=O)c3cccc(O)c3O)ccc2-n2c(C)nnc21 [BRD-N71, N-(17-(((4S)-6-(4-chlorophenyl)-4-(2-(ethylamino)-2-oxoethyl)-1-methyl-4H-benzo[f][1,2,4]triazolo[4,3-a][1,4]diazepin-8-yl)oxy)-3,6,9,12,15-pentaoxaheptadecyl)-2,3-dihydroxybenzamide]	there is no degradation of BRD4	causes degradation of BRD4; also recorded: Some selectivity for BRD-N71 and 8048 is noted	no evidence of BRD4 degradation	√ (A black check mark indicates efficacy of 30% to 70% or higher protein degradation)	Degradation of BRD4, combination with MDM2 ligand 8312 ([2]; Table 5, aromatic 1,2-diol BRD4 ligand + 8312): √ (A black check mark indicates efficacy of 30% to 70% or higher protein degradation)
COc1ccc2c(c1)C(c1ccc(Cl)cc1)=N[C@@H](CC(=O)NCCOCCOCCOCCNC(=O)c1ccc(O)c(O)c1)c1nnc(C)n1-2 [BRD-N44]	there is no degradation of BRD4	causes degradation of BRD4	–	√ (A black check mark indicates efficacy of 30% to 70% or higher protein degradation)	–
CCNC(=O)C[C@@H]1N=C(c2ccc(Cl)cc2)c2cc(OCCOCCOCCOCCNC(=O)c3ccc(B(O)O)cc3)ccc2-n2c(C)nnc21 [BRD-E43]	–	–	–	–	BRD4 degradation [1, 7]: causes degradation of BRD4; BRD4 degradation [1, 3]: causes degradation of BRD4; also recorded: Degradation is noted; Degradation of BRD4, combination with CRBN ligand 8047 [2]: √ (A black check mark indicates efficacy of 30% to 70% or higher protein degradation); Degradation of BRD4, combination with CRBN ligand 8066 [2]: √ (A black check mark indicates efficacy of 30% to 70% or higher protein degradation)
COc1ccc2c(c1)C(c1ccc(Cl)cc1)=N[C@@H](CC(=O)NCCCCNC(=O)c1cccc(O)c1O)c1nnc(C)n1-2 [BRD-N6]	there is no degradation of BRD4	causes degradation of BRD4; also recorded: Degradation is noted	no evidence of BRD4 degradation	√ (A black check mark indicates efficacy of 30% to 70% or higher protein degradation)	–
CCNC(=O)C[C@@H]1N=C(c2ccc(Cl)cc2)c2cc(OCCCCC(=O)Nc3ccc(O)c(O)c3)ccc2-n2c(C)nnc21 [BRD-N22, 5-(((4S)-6-(4-chlorophenyl)-4-(2-(ethylamino)-2-oxoethyl)-1-methyl-4H-benzo[f][1,2,4]triazolo[4,3-a][1,4]diazepin-8-yl)oxy)-N-(3,4-dihydroxyphenyl)pentanamide]	there is no degradation of BRD4	causes degradation of BRD4; also recorded: Degradation is noted	no evidence of BRD4 degradation	√ (A black check mark indicates efficacy of 30% to 70% or higher protein degradation)	–
CCNC(=O)C[C@@H]1N=C(c2ccc(Cl)cc2)c2cc(OCCOCCOCCOCCOCCOCCNC(=O)c3ccc(O)c(O)c3)ccc2-n2c(C)nnc21 [BRD-N70, N-(17-(((4S)-6-(4-chlorophenyl)-4-(2-(ethylamino)-2-oxoethyl)-1-methyl-4H-benzo[f][1,2,4]triazolo[4,3-a][1,4]diazepin-8-yl)oxy)-3,6,9,12,15-pentaoxaheptadecyl)-3,4-dihydroxybenzamide]	–	causes degradation of BRD4; also recorded: Degradation is noted	no evidence of BRD4 degradation	√ (A black check mark indicates efficacy of 30% to 70% or higher protein degradation)	–
COc1ccc2c(c1)C(c1ccc(Cl)cc1)=N[C@@H](CC(=O)Nc1ccc(B(O)O)cc1)c1nnc(C)n1-2 [BRD-E74, (4-(2-((4S)-6-(4-chlorophenyl)-8-methoxy-1-methyl-4H-benzo[f][1,2,4]triazolo[4,3-a][1,4]diazepin-4-yl)acetamido)phenyl)boronic acid]	–	–	–	–	BRD4 degradation ([1]; co-treated 1:1 with CRBN ligand 8046, HeLa, 10 μM each): causes degradation of BRD4; BRD4 degradation [1, 7]: causes degradation of BRD4; Degradation of BRD4, combination with CRBN ligand 8046 [2]: √ (A black check mark indicates efficacy of 30% to 70% or higher protein degradation); Degradation of BRD4, combination with MDM2 ligand 8314 ([2]; Table 2, aryl-boronic acid BRD4 ligand + 8314): √ (A black check mark indicates efficacy of 30% to 70% or higher protein degradation)
CCNC(=O)C[C@@H]1N=C(c2ccc(Cl)cc2)c2cc(OCCOCCNC(=O)c3ccc(O)c(O)c3)ccc2-n2c(C)nnc21 [BRD-N38, N-(2-(2-(((4S)-6-(4-chlorophenyl)-4-(2-(ethylamino)-2-oxoethyl)-1-methyl-4H-benzo[f][1,2,4]triazolo[4,3-a][1,4]diazepin-8-yl)oxy)ethoxy)ethyl)-3,4-dihydroxybenzamide]	there is no degradation of BRD4	causes degradation of BRD4	–	√ (A black check mark indicates efficacy of 30% to 70% or higher protein degradation)	–
